Assay results from US20120252721A1 (priority 2011, published 2012).
pEC50: −log10 of the molar value.

Columns and labels:
in vitro = format: cell-based, human; conditions: human; Table 1B, cellular viability
In short: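 Cytotoxicity counter-screen in which the H1a-luc or Zluc cells were compound-treated and viability was read with the CellTiter 96 AQueous One (MTS) reagent by absorbance at 490 nm. CC50 values came from curve fitting.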

[1] = test system: HCV genotype 4a NS5A within the 1b-replicon; assay: Luciferase replicon assay, NS5A-intergenotypic stable cell line genotype 4a; format: cell-based; conditions: Hepatitis C virus, read-out: EC50 4a
Source text: (§1) The nucleotide sequences of the NS5A region of genotype 2a (GenBank Accession # AB047639), genotype 3a (GenBank Accession #D17763), and genotype 4a (GenBank Accession# DQ418788) were synthesized by an outside vendor. The NS5A region of each of these genotypes included the first 11 amino acids of the protease recognition sequence of genotype 1b, as well as the last 10 amino acids of genotype 1b. The NS5A gene cassettes were excised with site specific restriction endonucleases and ligated into a ZS11-luciferase genotype 1b backbone (backbone contains the genotype 1b NS3 protease, NS4a, NS4b, and NS5b coding regions) with similarly cut restriction enzyme sites. Thus, the newly constructed plasmid contains a genotype 2a-, 3a- or 4a-specific NS5A gene within the 1b-replicon.
(§2) These new intergenotypic plasmids were used to establish stable cell lines. RNA was generated from the NS5A intergenotypic plasmids and used in conjunction with a lipofectin reagent to transfect a cured Huh7 cell line. Transfected cells were selected for with G418. After selection has occurred the stable cell lines were propagated, tested for luciferase activity, and RT-PCR with genotype specific primers (either 1a, 2a, 3a, or 4a). Stable cell lines containing the intergenotypic replicon were then fully sequenced and analyzed for proper expression of NS3, NS5A and NS5B proteins.
(§3) Drug titration analysis was performed using the luciferase replicon assay described herein.
(§4) The HCV luciferase replicon assay measures the ability of a test compound to inhibit HCV replication in cell culture after 3 days of treatment in a human hepatoma cell line (Huh-7) bearing an HCV replicon containing a luciferase-neomycin phosphotransferase fusion gene. The inhibition of HCV replication was measured by quantification of luciferase protein expression. Briefly, Huh-7 cells containing either the HCV genotype 1a H77 strain or genotype 1b Con1 strain subgenomic luciferase replicon (H1a-luc or Zluc, respectively) were grown in DMEM containing glucose, L-glutamine and sodium pyruvate, 10% fetal bovine serum (FBS), 100 IU/mL penicillin, 100 μg/mL streptomycin, 2 mM GlutaMAX, non-essential amino acids and 0.25 (H1a-luc) or 0.5 (Zluc) mg/mL G418. GlutaMAX was obtained from Invitrogen, Corp.; all other media reagents were obtained from Mediatech, Inc. For dose-response testing, the cells were seeded in 96-well plates at 1×10^4 (H1a-luc) or 7.5×10^3 (Zluc) cells/well in a volume of 50 μL, and incubated at 37° C./5% CO2. Three hours after plating, 50 μL of ten 5-fold serial dilutions of compound were added, and cell cultures were incubated at 37° C./5% CO2 for 72 hours. In all cases, Huh-7 cells lacking the HCV replicon served as negative control. To assess luciferase expression, the media/compound was removed from the plates and ONE-glo Luciferase assay reagent (Promega) was added to each well. The assay plates were shaken for 3 minutes at room temperature and luciferase activity for each well was measured with a 1 sec read time on the Victor^3V multilabel counter using a 700 nm cut-off filter (Perkin Elmer). EC50 values were calculated from dose response curves from the resulting best-fit equations determined by Microsoft Excel and XLfit 4.1 software.

[2] = test system: HCV genotype 3a NS5A within the 1b-replicon; assay: Luciferase replicon assay, NS5A-intergenotypic stable cell line genotype 3a; format: cell-based; conditions: Hepatitis C virus, read-out: EC50 3a
Source text: as §1, §2, §3, §4

[3] = test system: HCV genotype 1b replicon, NS5B M414T; assay: Luciferase replicon transient transfection assay, genotype 1b NS5B M414T; format: cell-based, hepatitis C virus
Procedure: (§5) The luciferase replicon transient transfection assay measures the ability of a test compound to inhibit the replication of a transiently-transfected HCV luciferase-bearing wild-type or mutant replicon in cured human hepatoma cells (Huh7.5). The inhibition of HCV replication was measured by quantification of luciferase protein expression. This assay has been validated using a panel of genotype 1a and 1b replicons bearing mutations known to be associated with resistance to BMS-790052. Briefly, subconfluent Huh7.5 cells were electroporated with 10 μg of wild-type or mutant luciferase-bearing HCV replicon RNA. The cells were then seeded in 96-well opaque white plates at 3×10^4 cells/well in 150 μL/well and incubated for 4 hrs at 37° C./5% CO2. […] The plates were agitated on a rotating platform at room temperature for 3 min and read in a Victor^3V microplate reader (Perkin-Elmer) using a 700 nm cut-off filter with a 1 sec read time. EC50 values were calculated from dose response curves from the resulting best-fit equations determined by Microsoft Excel and XLfit 4.1 software.
(§6) To determine the replication capacity of each mutant relative to the wild-type parental replicon, transfected cells were plated on two plates and were not treated with compound. Luciferase activity was measured at time points of 4 hrs and 4 days after plating for each replicon. […]

[4] = test system: HCV genotype 1b replicon, NS5B S282T; assay: Luciferase replicon transient transfection assay, genotype 1b NS5B S282T; format: cell-based, hepatitis C virus
Procedure: as §5, §6

[5] = test system: HCV genotype 1b replicon, NS5B M423T; assay: Luciferase replicon transient transfection assay, genotype 1b NS5B M423T; format: cell-based, hepatitis C virus
Procedure: as §5, §6

Compound | CC50 (in vitro) [nM] | pEC50 [1] | pEC50 [2] | pEC50 ([3]; Hepatitis C virus, genotype 1b, NS5B mutation M414T (confers resistance to Benzothiadiazine)) | Ratio ([3]; {}) | pEC50 ([4]; Hepatitis C virus, genotype 1b, NS5B mutation S282T (confers resistance to 2′-C-Methylnucleoside)) | Ratio ([4]; {}) | pEC50 ([5]; Hepatitis C virus, genotype 1b, NS5B mutation M423T (confers resistance to Thiophene)) | Ratio ([5]; {})
COC(=O)N[C@H](C(=O)N1CCC[C@H]1c1ncc(-c2ccc(-c3csc4c(-c5cnc([C@@H]6CCCN6C(=O)[C@@H](NC(=O)OC)C(C)C)[nH]5)csc34)cc2)[nH]1)C(C)C [Compound A15, [(S)-1-((S)-2-{4-[4-(6-{2-[(S)-1-((S)-2-methoxycarbonylamino-3-methyl-butyryl)-pyrrolidin-2-yl]-3H-imidazol-4-yl}-thieno[3,2-b]thiophen-3-yl)-phenyl]-1H-imidazol-2-yl}-pyrrolidine-1-carbonyl)-2-methyl-propyl]-carbamic acid methyl ester] | 10000 to 75000 | > 10.00 | 9.00 to 10.00 |  |  |  |  |  | 
COC(=O)N[C@H](C(=O)N1CCC[C@H]1c1nc2cc(-c3csc4c(-c5ccc(-c6cnc([C@@H]7CCCN7C(=O)[C@H](NC(=O)OC)c7ccccc7)[nH]6)cc5)csc34)ccc2[nH]1)C(C)C [Compound A169, [(S)-1-((S)-2-{6-[6-(4-{(S)-2-[1-((R)-2-methoxycarbonylamino-2-phenyl-acetyl)-pyrrolidin-2-yl]-3H-imidazol-4-yl}-phenyl)-thieno[3,2-b]thiophen-3-yl]-1H-benzoimidazol-2-yl}-pyrrolidine-1-carbonyl)-2-methyl-propyl]-carbamic acid methyl ester] |  |  |  | 11.74 | 1.05 | 11.85 | 0.83 | 11.70 | 1.22
